Results as given in the NIST ThermoML archive (doi:10.1007/s10765-009-0648-5).
± gives the expanded uncertainty stated by the source.

Legend:
[1] = 101 kPa, Liquid
[2] = wn = mass fraction of the nth substance listed; details: 101 kPa, Liquid

CCC[n+]1ccn(C)c1.[Br-] [1-methyl-3-propylimidazolium bromide]
[1]
Details | mass density [kg/m3] | speed of sound [m/s]
288.15 K | 1323.47 ± 3.3 | 1699.3 ± 2.6
293.15 K | 1319.84 ± 3.3 | 1685 ± 2.6
298.15 K | 1316.22 ± 3.3 | 1672 ± 2.6
303.15 K | 1312.6 ± 3.2 | 1659.9 ± 2.6
308.15 K | 1308.97 ± 3.2 | 1648.3 ± 2.6

CCC[n+]1ccn(C)c1.[Br-] [1-methyl-3-propylimidazolium bromide] + C[S+](C)[O-]
[2]
Details | mass density, 288.15 K [kg/m3] | mass density, 293.15 K [kg/m3] | mass density, 298.15 K [kg/m3] | mass density, 303.15 K [kg/m3] | mass density, 308.15 K [kg/m3] | speed of sound, 288.15 K [m/s] | speed of sound, 293.15 K [m/s] | speed of sound, 298.15 K [m/s] | speed of sound, 303.15 K [m/s] | speed of sound, 308.15 K [m/s]
w1 = 0.0077 | 1107.07 ± 0.89 | 1102.06 ± 0.86 | 1097.05 ± 0.84 | 1092.04 ± 0.82 | 1087.03 ± 0.79 | 1520.9 ± 1.5 | 1504.2 ± 1.5 | 1487.3 ± 1.5 | 1470.4 ± 1.5 | 1453.6 ± 1.5
w1 = 0.0102 | 1107.62 ± 0.89 | 1102.61 ± 0.87 | 1097.6 ± 0.84 | 1092.6 ± 0.82 | 1087.6 ± 0.8 | 1521.5 ± 1.5 | 1504.7 ± 1.5 | 1487.8 ± 1.5 | 1470.9 ± 1.5 | 1454.2 ± 1.5
w1 = 0.012 | 1108.05 ± 0.89 | 1103.04 ± 0.87 | 1098.04 ± 0.84 | 1093.03 ± 0.82 | 1088.03 ± 0.8 | 1521.9 ± 1.5 | 1505.2 ± 1.5 | 1488.3 ± 1.5 | 1471.4 ± 1.5 | 1454.7 ± 1.5
w1 = 0.0159 | 1108.91 ± 0.9 | 1103.91 ± 0.87 | 1098.91 ± 0.85 | 1093.92 ± 0.83 | 1088.93 ± 0.8 | 1523 ± 1.5 | 1506 ± 1.5 | 1489.2 ± 1.5 | 1472.3 ± 1.5 | 1455.7 ± 1.5
w1 = 0.0203 | 1109.88 ± 0.9 | 1104.88 ± 0.88 | 1099.89 ± 0.85 | 1094.91 ± 0.83 | 1089.93 ± 0.81 | 1523.8 ± 1.6 | 1507 ± 1.5 | 1490.2 ± 1.5 | 1473.4 ± 1.5 | 1456.7 ± 1.5
w1 = 0.0252 | 1110.97 ± 0.91 | 1105.98 ± 0.89 | 1100.99 ± 0.86 | 1096.02 ± 0.84 | 1091.04 ± 0.81 | 1524.8 ± 1.6 | 1507.8 ± 1.5 | 1491 ± 1.5 | 1474.2 ± 1.5 | 1457.6 ± 1.5
w1 = 0.0297 | 1111.95 ± 0.91 | 1106.98 ± 0.89 | 1102 ± 0.87 | 1097.03 ± 0.84 | 1092.07 ± 0.82 | 1525.8 ± 1.6 | 1509.1 ± 1.5 | 1492.3 ± 1.5 | 1475.5 ± 1.5 | 1458.9 ± 1.5
w1 = 0.0356 | 1113.27 ± 0.92 | 1108.3 ± 0.9 | 1103.33 ± 0.88 | 1098.37 ± 0.85 | 1093.42 ± 0.83 | 1527 ± 1.6 | 1510.4 ± 1.5 | 1493.6 ± 1.5 | 1476.9 ± 1.5 | 1460.3 ± 1.5
w1 = 0.0423 | 1114.74 ± 0.93 | 1109.78 ± 0.91 | 1104.82 ± 0.88 | 1099.87 ± 0.86 | 1094.93 ± 0.84 | 1528.5 ± 1.6 | 1511.6 ± 1.5 | 1494.9 ± 1.5 | 1478.2 ± 1.5 | 1461.7 ± 1.5
w1 = 0.0502 | 1116.49 ± 0.94 | 1111.55 ± 0.92 | 1106.6 ± 0.89 | 1101.67 ± 0.87 | 1096.73 ± 0.85 | 1530.2 ± 1.6 | 1513.5 ± 1.6 | 1496.9 ± 1.5 | 1480.2 ± 1.5 | 1463.6 ± 1.5
w1 = 0.0599 | 1118.62 ± 0.95 | 1113.69 ± 0.93 | 1108.76 ± 0.91 | 1103.84 ± 0.88 | 1098.93 ± 0.86 | 1532.1 ± 1.6 | 1515.3 ± 1.6 | 1498.7 ± 1.5 | 1482.1 ± 1.5 | 1465.7 ± 1.5
w1 = 1 | 1323.47 ± 3.3 | 1319.84 ± 3.3 | 1316.22 ± 3.3 | 1312.6 ± 3.2 | 1308.97 ± 3.2 | 1699.3 ± 2.6 | 1685 ± 2.6 | 1672 ± 2.6 | 1659.9 ± 2.6 | 1648.3 ± 2.6

CC#N [acetonitrile]
[1]
Details | mass density [kg/m3] | speed of sound [m/s]
288.15 K | 787.376 ± 1.4 | 1319.1 ± 1.4
293.15 K | 782.007 ± 1.4 | 1299 ± 1.4
298.15 K | 776.609 ± 1.4 | 1278.8 ± 1.4
303.15 K | 771.183 ± 1.5 | 1258.5 ± 1.4
308.15 K | 765.725 ± 1.5 | 1238.4 ± 1.4

CC#N [acetonitrile] + CCC[n+]1ccn(C)c1.[Br-]
[2], w2 = 0
Details | mass density [kg/m3] | speed of sound [m/s]
288.15 K | 787.376 ± 1.4 | 1319.1 ± 1.4
293.15 K | 782.007 ± 1.4 | 1299 ± 1.4
298.15 K | 776.609 ± 1.4 | 1278.8 ± 1.4
303.15 K | 771.183 ± 1.5 | 1258.5 ± 1.4
308.15 K | 765.725 ± 1.5 | 1238.4 ± 1.4

C[S+](C)[O-] [dimethyl sulfoxide]
[1]
Details | mass density [kg/m3] | speed of sound [m/s]
288.15 K | 1105.34 ± 0.88 | 1519.1 ± 1.5
293.15 K | 1100.31 ± 0.85 | 1502.2 ± 1.5
298.15 K | 1095.28 ± 0.83 | 1485.2 ± 1.5
303.15 K | 1090.25 ± 0.81 | 1468.3 ± 1.5
308.15 K | 1085.23 ± 0.78 | 1451.5 ± 1.5

C[S+](C)[O-] [dimethyl sulfoxide] + CCC[n+]1ccn(C)c1.[Br-]
[2], w2 = 0
Details | mass density [kg/m3] | speed of sound [m/s]
288.15 K | 1105.34 ± 0.88 | 1519.1 ± 1.5
293.15 K | 1100.31 ± 0.85 | 1502.2 ± 1.5
298.15 K | 1095.28 ± 0.83 | 1485.2 ± 1.5
303.15 K | 1090.25 ± 0.81 | 1468.3 ± 1.5
308.15 K | 1085.23 ± 0.78 | 1451.5 ± 1.5

CN(C)C=O [dimethylformamide]
[1]
Details | mass density [kg/m3] | speed of sound [m/s]
288.15 K | 953.442 ± 0.6 | 1496.6 ± 1.5
293.15 K | 948.685 ± 0.62 | 1477.3 ± 1.5
298.15 K | 943.917 ± 0.64 | 1457.8 ± 1.5
303.15 K | 939.142 ± 0.67 | 1438.4 ± 1.5
308.15 K | 934.357 ± 0.69 | 1419 ± 1.5

CN(C)C=O [dimethylformamide] + CCC[n+]1ccn(C)c1.[Br-]
[2], w2 = 0
Details | mass density [kg/m3] | speed of sound [m/s]
288.15 K | 953.442 ± 0.6 | 1496.6 ± 1.5
293.15 K | 948.685 ± 0.62 | 1477.3 ± 1.5
298.15 K | 943.917 ± 0.64 | 1457.8 ± 1.5
303.15 K | 939.142 ± 0.67 | 1438.4 ± 1.5
308.15 K | 934.357 ± 0.69 | 1419 ± 1.5
